Measured values published in patent US20210380556A1, “HETEROARYLAZOLE COMPOUND AND PEST CONTROL AGENT” (Nippon Soda Co., Ltd., priority 2018, published 2021).

system: Mythimna separata; experiment: Test Example 1: efficacy on Mythimna separata (treated artificial feed); type: in vivo; settings: 1 μl of emulsion (I) (5% active ingredient) in 0.8 g artificial feed; second instar larvae; 25° C.; fifth day
From the text: 5 parts of the heteroaryl azole compound of the present invention, 93.6 parts of dimethylformamide, and 1.4 parts of polyoxyethylene alkyl aryl ether were mixed and dissolved to prepare emulsion (I) containing 5% of the active ingredient.
For a control, 98.5 parts of dimethylformamide and 1.5 parts of polyoxyethylene alkyl aryl ether were mixed and dissolved to prepare emulsion (II).
Insecticidal rate (%)=(The number of dead insects/The number of tested insects)×100
0.8 g of commercially available artificial feed (Insecta LFS, manufactured by Nosan Corp.) and 1 μl of the emulsion (I) were well mixed to obtain test feed.
A plastic test container (capacity: 1.4 ml) was packed with 0.2 g of the test feed per treatment plot. Then, two second instar larvae of Mythimna separata were inoculated to each treatment plot. A plastic lid was put on the test container so as to prevent escape of the second instar larvae of Mythimna separata. The container was placed in a thermostat chamber of 25° C. On the fifth day, the insecticidal rate and the food intake were examined. The test was conducted in duplicate.
The insecticidal rate and the food intake of a control plot were examined in the same way as in Test Example 1 except that the emulsion (I) was changed to the emulsion (II).

Compound | insecticidal rate or food intake as compared with the control plot
CCS(=O)(=O)c1ccc(-n2cncn2)nc1-c1ncc(C(F)(F)C(F)(F)C(F)(F)C(F)(F)F)n1C [b-8] | insecticidal rate of 100% for Mythimna separata or a food intake of 10% or less
CCS(=O)(=O)c1ccc(-n2cncn2)nc1-c1ncc(C(F)C(F)(F)C(F)(F)C(F)(F)C(F)(F)F)n1C (stereo not shown) [b-10] | insecticidal rate of 100% for Mythimna separata or a food intake of 10% or less
CCS(=O)(=O)c1cc(-c2ncccc2Cl)cnc1-c1ncc(C(F)(F)C(F)(F)C(F)(F)F)n1C [b-62] | insecticidal rate of 100% for Mythimna separata or a food intake of 10% or less
CCS(=O)(=O)c1cc(C2CC2)cnc1-c1ncc(C(F)C(F)(F)C(F)(F)C(F)(F)F)n1C (stereo not shown) [b-18] | insecticidal rate of 100% for Mythimna separata or a food intake of 10% or less
CCS(=O)(=O)c1cc(-c2ncccn2)cnc1-c1ncc(C(F)C(F)(F)C(F)(F)C(F)(F)C(F)(F)F)n1C (stereo not shown) [b-64] | insecticidal rate of 100% for Mythimna separata or a food intake of 10% or less
CCS(=O)(=O)c1cc(OC(C)(C)C(F)(F)F)cnc1-c1ncc(C(F)C(F)(C(F)(F)F)C(F)(F)F)n1C (stereo not shown) [b-69] | insecticidal rate of 100% for Mythimna separata or a food intake of 10% or less
CCS(=O)(=O)c1cc(-n2ccc(C(F)(F)F)n2)cnc1-c1ncc(C(F)(F)C(F)(F)C(F)(F)F)n1C [b-36] | insecticidal rate of 100% for Mythimna separata or a food intake of 10% or less
CCS(=O)(=O)c1cccnc1-c1ncc(C(F)(F)C(F)(F)C(F)(F)C(F)(F)F)n1C [b-3] | insecticidal rate of 100% for Mythimna separata or a food intake of 10% or less
CCS(=O)(=O)c1cc(-c2ncccn2)cnc1-c1ncc(C(F)C(F)(F)C(F)(F)F)n1C (stereo not shown) [b-24] | insecticidal rate of 100% for Mythimna separata or a food intake of 10% or less
CCS(=O)(=O)c1cc(C(F)(F)F)cnc1-c1ncc(C(F)(F)C(F)(F)C(F)(F)F)n1C [b-15] | insecticidal rate of 100% for Mythimna separata or a food intake of 10% or less
CCS(=O)(=O)c1cc(-c2ccccn2)cnc1-c1ncc(C(F)C(F)(F)C(F)(F)C(F)(F)C(F)(F)F)n1C (stereo not shown) [b-66] | insecticidal rate of 100% for Mythimna separata or a food intake of 10% or less
CCS(=O)(=O)c1ccc(-n2cncn2)nc1-c1ncc(C(F)(F)C(F)(F)C(F)(F)F)n1C [b-16] | insecticidal rate of 100% for Mythimna separata or a food intake of 10% or less
CCS(=O)(=O)c1cc(-c2ccccn2)cnc1-c1ncc(C(F)C(F)(C(F)(F)F)C(F)(F)F)n1C (stereo not shown) [b-43] | insecticidal rate of 100% for Mythimna separata or a food intake of 10% or less
CCS(=O)(=O)c1cc(C2CC2)cnc1-c1ncc(C(F)C(F)(F)C(F)(F)F)n1C (stereo not shown) [b-25] | insecticidal rate of 100% for Mythimna separata or a food intake of 10% or less
CCS(=O)(=O)c1cc(C(C)(C)C#N)cnc1-c1ncc(C(F)(F)C(F)(F)C(F)(F)F)n1C [b-42] | insecticidal rate of 100% for Mythimna separata or a food intake of 10% or less
CCS(=O)(=O)c1cc(NC(=O)C2CC2)cnc1-c1ncc(C(F)(F)C(F)(F)C(F)(F)F)n1C [b-41] | insecticidal rate of 100% for Mythimna separata or a food intake of 10% or less
CCS(=O)(=O)c1cc(Br)cnc1-c1ncc(C(F)C(F)(F)C(F)(F)F)n1C (stereo not shown) [b-23] | insecticidal rate of 100% for Mythimna separata or a food intake of 10% or less
CCS(=O)(=O)c1cc(-c2ncccc2F)cnc1-c1ncc(C(F)(F)C(F)(F)C(F)(F)C(F)(F)F)n1C [b-61] | insecticidal rate of 100% for Mythimna separata or a food intake of 10% or less
CCS(=O)(=O)c1cc(C2(c3ccccn3)CC2)cnc1-c1ncc(C(F)C(F)(C(F)(F)F)C(F)(F)F)n1C (stereo not shown) [b-57] | insecticidal rate of 100% for Mythimna separata or a food intake of 10% or less
CCS(=O)(=O)c1cnc(N)nc1-c1ncc(C(F)(F)C(F)(F)C(F)(F)C(F)(F)F)n1C [a-8] | insecticidal rate of 100% for Mythimna separata or a food intake of 10% or less

Compound | insecticidal rate or food intake as compared with the control plot
CCS(=O)(=O)c1cc(C2CC2)cnc1-c1ncc(C(F)(F)C(F)(F)C(F)(F)C(F)(F)F)n1C [b-1] | insecticidal rate of 100% for Mythimna separata or a food intake of 10% or less
CCS(=O)(=O)c1cnc(OC)nc1-c1ncc(C(F)(F)C(F)(F)C(F)(F)C(F)(F)F)n1C [a-9] | insecticidal rate of 100% for Mythimna separata or a food intake of 10% or less
C=Cc1cnc(-c2ncc(C(F)C(F)(F)C(F)(F)F)n2C)c(S(=O)(=O)CC)c1 (stereo not shown) [b-39] | insecticidal rate of 100% for Mythimna separata or a food intake of 10% or less
CCS(=O)(=O)c1cc(-c2ncccc2C#N)cnc1-c1ncc(C(F)(F)C(F)(F)C(F)(F)F)n1C [b-54] | insecticidal rate of 100% for Mythimna separata or a food intake of 10% or less
CCS(=O)(=O)c1cc(-c2cc(F)cc(F)c2)cnc1-c1ncc(C(F)C(F)(F)C(F)(F)F)n1C (stereo not shown) [b-34] | insecticidal rate of 100% for Mythimna separata or a food intake of 10% or less
CCSc1cccnc1-c1ncc(C(F)(F)C(F)(F)C(F)(F)C(F)(F)F)n1C [b-2] | insecticidal rate of 100% for Mythimna separata or a food intake of 10% or less
CCS(=O)(=O)c1cc(C2CC2)cnc1-c1ncc(C(F)C(F)(C(F)(F)F)C(F)(F)F)n1C (stereo not shown) [b-52] | insecticidal rate of 100% for Mythimna separata or a food intake of 10% or less
CCS(=O)(=O)c1cccnc1-c1ncc(C(F)C(F)(F)C(F)(F)C(F)(F)C(F)(F)F)n1C (stereo not shown) [b-11] | insecticidal rate of 100% for Mythimna separata or a food intake of 10% or less
CCS(=O)(=O)c1cc(-c2ncccn2)cnc1-c1ncc(C(Cl)C(F)(F)C(F)(F)F)n1C (stereo not shown) [b-32] | insecticidal rate of 100% for Mythimna separata or a food intake of 10% or less
CCS(=O)(=O)c1cc(-c2ncccc2F)cnc1-c1ncc(C(F)(F)C(F)(F)C(F)(F)F)n1C [b-55] | insecticidal rate of 100% for Mythimna separata or a food intake of 10% or less
CCS(=O)(=O)c1ccc(-c2ncccn2)nc1-c1ncc(C(F)(F)C(F)(F)C(F)(F)C(F)(F)F)n1C [b-9] | insecticidal rate of 100% for Mythimna separata or a food intake of 10% or less
CCS(=O)(=O)c1cc(C2CC2)cnc1-c1ncc(C(F)(F)C(F)(F)F)n1C [b-26] | insecticidal rate of 100% for Mythimna separata or a food intake of 10% or less
CCS(=O)(=O)c1cc(-c2cc(F)cc(F)c2)cnc1-c1ncc(C(F)(F)C(F)(F)C(F)(F)F)n1C [b-60] | insecticidal rate of 100% for Mythimna separata or a food intake of 10% or less
CCS(=O)(=O)c1cc(-c2cncnc2)cnc1-c1ncc(C(F)C(F)(F)C(F)(F)F)n1C (stereo not shown) [b-35] | insecticidal rate of 100% for Mythimna separata or a food intake of 10% or less
CCS(=O)(=O)c1cc(C2CC2)cnc1-c1ncc(C(F)(F)C(F)(F)C(F)(F)F)n1C [b-20] | insecticidal rate of 100% for Mythimna separata or a food intake of 10% or less
CCS(=O)(=O)c1ccc(-n2cncn2)nc1-c1ncc(C(Cl)C(F)(F)C(F)(F)C(F)(F)C(F)(F)F)n1C (stereo not shown) [b-13] | insecticidal rate of 100% for Mythimna separata or a food intake of 10% or less
CCS(=O)(=O)c1cc(C(F)(F)F)cnc1-c1ncc(C(F)(F)C(F)(F)C(F)(F)C(F)(F)F)n1C [b-7] | insecticidal rate of 100% for Mythimna separata or a food intake of 10% or less
CCS(=O)(=O)c1cc(-n2cncn2)cnc1-c1ncc(C(F)(F)C(F)(F)C(F)(F)F)n1C [b-45] | insecticidal rate of 100% for Mythimna separata or a food intake of 10% or less
CCS(=O)(=O)c1cc(-c2ccccn2)cnc1-c1ncc(C(F)(F)C(F)(F)C(F)(F)C(F)(F)F)n1C [b-59] | insecticidal rate of 100% for Mythimna separata or a food intake of 10% or less
CCS(=O)(=O)c1ccc(N)nc1-c1ncc(C(F)(F)C(F)(F)C(F)(F)C(F)(F)F)n1C [b-12] | insecticidal rate of 100% for Mythimna separata or a food intake of 10% or less
